According to patent US11911442B2, “Use of soluble pro(renin) receptor to treat metabolic disorders and related conditions” (priority 2017, dated 2024):

Tests used:
mouse model of NDI = test: Mouse model of NDI induced with V2R antagonist OPC; type: in vivo
Source text: Mice were placed in metabolic cages for assessment of daily water intake and urine output. (A) daily water intake (n=4 mice per group). (B) Daily urine output (n=4 mice per group). (C) Urine osmolality (n=4 mice per group). (D) Urinary sPRR excretion (n=4 mice per group). Data are shown as mean±SE. In A-C, #P<0.05 vs. OPC alone; in D*P<0.05 vs. control. (E) Schematic illustration of the mechanism of action of sPRR. In the lumen of the distal nephron, sPRR binds FZD8 in a receptor complex on the apical membrane of principal cells, resulting in the activation of β-catenin, which promotes cAMP accumulation, ultimately leading to increased AQP2 transcription and enhanced urine concentration.
In support of this notion, it has been shown that exposure of the CD cells to AVP stimulates the release of sPRR. FIG. 8E provides a schematic illustration of the mechanism of action of sPRR in the CD principal cells.
Urinary or medium sPRR was determined using a commercially sPRR enzyme immunoassay (EIA) kit (catalog no. JP27782; Immuno-Biological Laboratories) according to the manufacturer's instructions.

AQP2 = AQP2 expression in primary rat IMCD cells (quantitative RT-PCR, immunoblotting); type: cell-based; conditions: inhibitor 10 μM pretreatment 1 h, then 10 nM sPRR-His 24 h
Wnt/β-catenin pathway = test: Acute and chronic responses to AVP (cAMP, AQP2) in primary rat IMCD cells; type: cell-based; conditions: XAV pretreatment 1 h
Procedure: FIGS. 5A-5F show a distinct role of the Wnt/β-catenin pathway in the acute and chronic responses to AVP in primary rat IMCD cells. The IMCD cells were pretreated for 1 h with XAV and were treated for 30 min or 24 h with 10 nM AVP. (A) At 30 min of AVP treatment, the medium was assayed for cAMP using ELISA (n=6 per group). (B and C) Membrane fraction (n=6 per group) (B) and cytosolic fraction (n=6 per group) (C) were subjected to immunoblotting analysis of AQP2. (D-F) At 24 h, medium cAMP was determined (n=6 per group) (D), whole-cell lysates were subjected to immunoblotting analysis of AQP2 (n=6 per group) (E), and total RNA was subjected to quantitative RT-PCR analysis of AQP2 mRNA (n=4 per group) (F). Data are shown as mean±SE; *P<0.05 vs. control; #P<0.05 vs. AVP alone.
For sPRR signaling studies, primary IMCD cells were prepared from 4-wk-old SD rats as previously described (35). The cells were grown in Transwell plates (catalog no. 29442-074; VWR International) with DMEM/F-12 medium containing 10% (vol/vol) FBS, 0.5 μM 8-Br-cAMP, 130 mM NaCl, and 80 mM urea. […] At the end of the experiments, the medium was collected for biochemical assays.
The membrane and cytosolic fractions of proteins were extracted using a kit according to the manufacturer's instructions (catalog no. BSP002; Bio Basic Inc.).

Sprague-Dawley (SD) rats = test: Water balance and renal AQP2 in SD rats, basal and water deprivation; type: in vivo, rat
Procedure: FIGS. 6A-6H show a role of the Wnt/β-catenin pathway in urine-concentrating capability in rats. SD Rats were administered vehicle, OMP, or XAV and were placed in metabolic cages for assessment of the state of water metabolism at basal condition (A-C) or after 24-h WD (D-H) (n=5 rats per group). At basal the condition, water intake (A), urine volume (B), and urine osmolality (C) were determined. (D-F) During 24-h WD, urine volume (D), urine osmolality (E), and body-weight (BW) changes (F) were monitored. (G and H) At the end of the experiment plasma osmolality (G) and Hct (H) were measured. *P<0.05 vs. control; #P<0.05 vs. WD alone.
FIGS. 7A-7F show an in vivo role of the Wnt/β-catenin pathway in the regulation of renal AQP2 expression during antidiuresis in rats. (A and B) To assess renal β-catenin activation by WD, the nuclear fraction of renal cortex (n=4 rats per group) (A) and the inner medulla (n=4 rats per group) (B) from control and dehydrated rats were subjected to immunoblotting analysis of β-catenin. (C-F) Immunoblotting analysis of AQP2 expression was performed on the renal cortex and the inner medulla of rats treated with vehicle or WD with (C) or without (D) OMP or with (E) or without (F) XAV (n=5 rats per group). Data are shown as mean±SE; *P<0.05 vs. control; #P<0.05 vs. WD. CO, cortex; IM, inner medulla.
To probe the in vivo role of β-catenin signaling in fluid homeostasis, OMP and XAV were administered to Sprague-Dawley (SD) rats under basal conditions and during […] water deprivation (WD) and evaluated their impact on water balance.
Renal tissues were lysed and subsequently sonicated. Protein concentrations were determined using Coomassie reagent. Forty micrograms of protein from each sample were denatured in boiling water, separated by SDS/PAGE, and transferred onto nitrocellulose membranes. Blots were blocked 1 h with 5% nonfat dry milk in Tris-buffered saline (TBS), followed by overnight incubation with primary antibody. After washing with TBS, blots were incubated with goat anti-rabbit/mouse HRP-conjugated secondary antibody and visualized using ECL. The blots were quantitated by using Image-Pro Plus (Media Cybernetics). The primary antibodies were goat anti-AQP2 antibody, rabbit anti-PRR-N antibody, and rabbit anti-FZD8 antibody (all from Santa Cruz), rabbit anti-V2R antibody (Abcam), and goat anti-β-catenin antibody (Novus).

## Cc1ccccc1C(=O)Nc1ccc(C(=O)N2CCCC(N(C)C)c3ccccc32)cc1 (centres unmarked) [OPC]
Mouse model of NDI; C57/BL6 mice, OPC via gavage 30 mg·kg^−1·d^−1 for 3 d
  water intake, urine output, urine osmolality: polydipsia, polyuria, and hypoosmotic urine
Mouse model of NDI; OPC-treated mice
  urinary sPRR excretion: suppressed significantly

## Oc1nc(-c2ccc(C(F)(F)F)cc2)nc2c1CSCC2 [XAV939]
AQP2
  sPRR-His-induced AQP2 protein expression, effect of inhibitor: blunted
Wnt/β-catenin pathway; 30-min exposure to 10 nM AVP
  rapid rise of cAMP and redistribution of AQP2 from the cytosol to the membrane in response to AVP: unaffected
Wnt/β-catenin pathway; 24 h 10 nM AVP
  AVP-induced increases in cAMP level, total protein abundance and mRNA expression of AQP2: effectively attenuated
Sprague-Dawley (SD) rats; WD, immunoblotting
  WD-induced increase of AQP2 protein abundance in renal cortex and inner medulla: attenuated significantly
Sprague-Dawley (SD) rats; basal conditions, administration over 48 h
  water balance (urine volume, water intake, urine osmolality): polyuria, polydipsia, and hypoosmotic urine
Sprague-Dawley (SD) rats; during 48-h WD
  plasma osmolality and hematocrit (Hct): greater increases
  urine osmolality: decreased
  urine volume: increased
  weight loss: exaggerated
